Test results published in US9403800B2, “Compounds for inhibition of cancer cell proliferation” (ChemRegen, Inc., priority 2012, dated 2016).

Legend:
[1] = test system: normal human fibroblast cells; test: effect on normal human fibroblast cells; format: cell-based
TGF-signaling pathway = TGF-signaling pathway transcriptional activity (selectivity); format: cell-based
[2] = chemical stability by HPLC; format: physicochemical; conditions: determined by HPLC
Text: As observed from the data presented in Table 1, both free bases and salts gave significant Wnt inhibition potency. On the basis of the lipophilic character of many of the analogs, it is likely interaction site on the molecular target has a lipophilic character although polar interactions are apparent. To increase solubility, were possible, hydrochloride salts of the sulfonamides were synthesized. To afford appropriate bioavailability, sulfonamides were synthesized with chemical and metabolic stability in mind.

[3] = test system: HCT-116 xenograft colon tumors; test: HCT-116 xenograft colon tumors in nu/nu mice; format: in vivo
Protocol: Based on the inhibition of cancer cell proliferation by the disclosed compounds the disclosed compounds likely will inhibit cancer cell migration. […] Following establishment of HCT-116 tumors, daily doses of either Compound 15 or vehicle were administered by i.p. injection at 20 mg/kg for 28 days. […] The weight of the excised HCT-116 tumors was 77% lower for the Compound 15-treated mice relative to the vehicle control on Day 28 of the experiment. […] Following establishment of PC-3 tumors, daily doses of either Compounds 1, 15 or vehicle were administered by i.p. injection at 30 mg/kg for 19 days. […] The weight of the excised PC-3 tumors was 66% for compound 15-treated mice compared to vehicle-treated controls on Day 19 of the experiment.

| half-life [2] | SMILES | effect on normal human fibroblast cells [1] | transcriptional activity of the TGF-signaling pathway (TGF-signaling pathway) | weight of the excised HCT-116 tumors, lower relative to the vehicle control ([3]; i.p. 20 mg/kg daily, Day 28) | growth of HCT-116 colon tumors ([3]; nu/nu mice, i.p. 20 mg/kg daily for 28 days) |
| --- | --- | --- | --- | --- | --- |
| 120 h | O=C1CCCN1c1ccc(S(=O)(=O)N2CCCc3ccccc32)cc1 [Compound 1, 1-(4-(3,4-dihydroquinolin-1(2H)-ylsulfonyl)phenyl)pyrrolidin-2-one] | did not have any affect on normal human fibroblast cells | did not alter the transcriptional activity | – | – |
| – | CN1CCN(S(=O)(=O)c2ccc(N3CCCC3=O)cc2)c2ccccc21 [Compound 15, 1-(4-(4-methyl-3,4-dihydroquinoxalin-1(2H)-ylsulfonyl)phenyl)pyrrolidin-2-one] | – | – | 77% | decreased the growth of HCT-116 colon tumors |
